In US20260176289A1, “SMALL MOLECULE INHIBITORS OF KRAS PROTEINS” (Merck Sharp & Dohme LLC, priority 2022, published 2026):

Experiments:
KRAS-WT = KRAS-WT (Homo sapiens, UniProt P01116); assay: SOS-catalyzed nucleotide exchange assay (Procedure A, TR-FRET), KRAS-WT; format: biochemical; conditions: nucleotide exchange, read-out: KRAS WT GNE IC50
Method in brief: (§1)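 Signal ratio (520/495 nm, excitation 340 nm) reports Bodipy-GDP retention on biotinylated RAS after SOS-catalyzed exchange with 3 mM GTP. SOS was 40 nM, except 160 nM for G12V. Room-temperature exchange lasted 60 min (90 min for G12V), following a 60 min compound preincubation.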

[1] = biological target: KRAS-G12C (C51S/C80L/C118S) (Homo sapiens, UniProt P01116, C118S/C51S/C80L/G12C); assay: SOS-catalyzed nucleotide exchange assay (Procedure A, TR-FRET), KRAS-G12C; format: biochemical; conditions: nucleotide exchange, Procedure A; read-out: KRAS G12C GNE IC50
KRAS-G12C (C51S/C80L/C118S), sequence (P01116 with tags, fused parts or gaps isoform P01116-2 G12C/C51S/C80L/C118S): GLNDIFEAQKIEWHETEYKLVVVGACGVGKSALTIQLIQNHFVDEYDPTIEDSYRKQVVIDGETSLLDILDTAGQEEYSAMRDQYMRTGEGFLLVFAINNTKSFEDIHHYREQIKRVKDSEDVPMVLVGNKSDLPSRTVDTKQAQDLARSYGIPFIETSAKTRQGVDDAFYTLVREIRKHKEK
Text: (§2) Procedure for SOS-Catalyzed Nucleotide Exchange Assay for KRAS-WT, G12C/D/V, G13D, HRAS, and NRAS (Procedure A)
(§3) Recombinant KRAS-G12C protein used in this assay has an additional triple mutation (C51S/C80L/C118S). Whereas KRAS-WT, G12D/V, G13D, HRAS and NRAS are in context of their WT protein sequence background. Specifically, the SOS-catalyzed nucleotide exchange assay utilizes a preformed TR-FRET complex containing a specific biotinylated RAS protein (KRAS-WT, G12C/V/D, G13D, HRAS, NRAS; described above) with Bodipy-GDP, and Terbium-streptavidin. Compounds are preincubated with this complex for 60 minutes. Subsequently, recombinant human SOS protein and unlabeled GTP are added to initiate the exchange reaction. Small molecule inhibitors stabilize the Bodipy-GDP complex whereas the untreated protein rapidly exchanges Bodipy-GDP for unlabeled GTP resulting in reduced TR-FRET signal.
(§4) To assemble the preformed TR-FRET complexes, each biotinylated RAS protein is diluted to 2 μM in an EDTA Buffer (20 mM HEPES pH 7.5, 50 mM sodium chloride, 10 mM EDTA, and 0.01% Tween) and incubated at room temperature for one hour. This mixture is then further diluted to 90 nM in an Assay Buffer (20 mM HEPES pH 7.5, 150 mM sodium chloride, 10 mM magnesium chloride, and 0.005% Tween) containing 15 nM of Terbium-Streptavidin (Invitrogen, catalog #PV3577) and 900 nM of Bodipy-GDP (Invitrogen, catalog #G22360) and incubated at room temperature for six hours. It should be noted that this preformed TR-FRET complex for each of the RAS protein were made ahead of time, aliquoted and stored at −80° C. until the day of the experiment.
(§5) Each test compound (10 mM stock in DMSO) is diluted in DMSO to make a final-10-point, 3-fold dilution and is acoustically dispensed into a 384-well assay plate (Corning, catalog #3820) using an Echo 550 (Labcyte). Each well of the assay plate receives 3 μL of a specific 3×RAS preformed TR-FRET complex and 3 μL of Assay Buffer and is incubated at room temperature for 60 minutes (preincubation time). Each well then receives 3 μL of 3×recombinant human SOS protein and GTP (Sigma, G8877) in Assay Buffer and is incubated at room temperature for 30 minutes (G13D), 60 minutes (KRAS WT/G12C/D, H/NRAS) or 90 minutes for G12V. The final reaction in each well of 9 μL consists of 3 mM GTP, specific Ras and SOS proteins in the following concentrations: KRAS-G12C/SOS=3 nM/40 nM, KRAS-WT and G12D/SOS=1 nM/40 nM, KRAS-G12V/SOS=1.25 nM/160 nM. KRAS-G13D/SOS=1.25 nM/0 nM, HRAS and NRAS=1.25 nM/40 nM.
(§6) The time-resolved fluorescence resonance energy transfer (TR-FRET) signal is measured on an Envision (PerkinElmer) plate reader: Excitation filter=340 nm; emission 1=495 nm; emission2=520 nm; dichroic mirror=D400/D505; delay time=[…]. The signal of each well is determined as the ratio of the emission at 520 nm to that at 495 nm. Percent effect of each well is determined after normalization to control wells containing DMSO (no effect) or a saturating concentration of inhibitor (max effect). The apparent effect as a function of compound concentration is fit to a four-parameter logistic equation.

KRAS-G12D = KRAS-G12D (Homo sapiens, UniProt P01116, G12D); assay: SOS-catalyzed nucleotide exchange assay (Procedure A, TR-FRET), KRAS-G12D; format: biochemical; conditions: nucleotide exchange, read-out: KRAS G12D GNE IC50
KRAS-G12D, sequence (P01116 with tags, fused parts or gaps isoform P01116-2 G12D): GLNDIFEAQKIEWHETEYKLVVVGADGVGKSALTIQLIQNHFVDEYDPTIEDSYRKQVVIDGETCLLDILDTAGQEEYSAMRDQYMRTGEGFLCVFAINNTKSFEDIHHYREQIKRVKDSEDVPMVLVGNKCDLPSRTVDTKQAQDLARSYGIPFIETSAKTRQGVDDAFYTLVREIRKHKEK
Method in brief: as §1

KRAS-G12V = KRAS-G12V (Homo sapiens, UniProt P01116, G12V); assay: SOS-catalyzed nucleotide exchange assay (Procedure A, TR-FRET), KRAS-G12V; format: biochemical; conditions: nucleotide exchange, read-out: KRAS G12V GNE IC50
KRAS-G12V, sequence (P01116 with tags, fused parts or gaps isoform P01116-2 G12V): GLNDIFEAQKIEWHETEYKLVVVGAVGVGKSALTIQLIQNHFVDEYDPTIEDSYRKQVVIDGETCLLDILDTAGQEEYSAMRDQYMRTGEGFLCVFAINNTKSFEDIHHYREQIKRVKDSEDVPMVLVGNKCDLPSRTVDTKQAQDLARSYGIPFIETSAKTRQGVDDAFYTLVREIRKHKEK
Method in brief: as §1

KRAS-G13D = KRAS-G13D (Homo sapiens, UniProt P01116, G13D); assay: SOS-catalyzed nucleotide exchange assay (Procedure A, TR-FRET), KRAS-G13D; format: biochemical; conditions: nucleotide exchange, Procedure A; read-out: KRAS G13D GNE IC50
KRAS-G13D, sequence (P01116 with tags, fused parts or gaps isoform P01116-2 G13D): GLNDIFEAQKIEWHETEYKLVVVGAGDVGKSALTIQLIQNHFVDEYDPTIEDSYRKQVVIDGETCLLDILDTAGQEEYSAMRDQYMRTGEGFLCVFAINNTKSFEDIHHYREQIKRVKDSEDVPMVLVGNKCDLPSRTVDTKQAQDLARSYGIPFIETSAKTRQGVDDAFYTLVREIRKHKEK
Text: as §2, §3, §4, §5, §6

AsPC-1 cells = assay: Cellular phospho-ERK assay, AsPC-1 cells (homozygous KRAS-G12D); format: cell-based; conditions: Homo sapiens, ASPC1, 2 h, 2 hours compound incubation, read-out: AsPC1 pERK IC50
Method in brief: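 p-ERK/total ERK ratio, measured by AlphaLISA SureFire Ultra multiplex in lysates, was fitted to a 4-parameter logistic model for IC50. Compound exposure was 2 h at 37° C, 5% CO2, 10-point 1:3 dilutions from 30 μM final, on cells plated the previous night.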

KRAS-WT, sequence (P01116 with tags, fused parts or gaps isoform P01116-2): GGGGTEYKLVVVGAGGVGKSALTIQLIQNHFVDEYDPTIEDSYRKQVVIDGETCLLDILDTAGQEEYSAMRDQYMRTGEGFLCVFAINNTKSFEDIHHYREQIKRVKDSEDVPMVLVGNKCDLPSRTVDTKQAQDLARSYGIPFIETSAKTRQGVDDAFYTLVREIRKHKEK

Cc1cc2[nH]ncc2c(-c2nccc3c2sc2nc(OC[C@@]45CCCN4C[C@H](F)C5)nc(N4CCOC[C@@](C)(O)C4)c23)c1-c1ccsc1 [Ex-139, (6S)-4-(2-(((2R, 7aS)-2-fluorotetra-hydro-1H-pyrrol-izin-7a(5H)-yl)meth-oxy)-8-(6-methyl-5-(thiophen-3-yl)-1H-indazol-4-yl)pyrido [4′,3′:4,5]thieno[2,3-d]pyrimidin-4-yl)-6-methyl-1,4-oxaze-pan-6-ol]
IC50 (KRAS-WT): 319 nM | IC50 [1]: 159 nM | IC50 (KRAS-G12D): 129 nM | IC50 (KRAS-G12V): 128 nM | IC50 (KRAS-G13D): 377 nM | IC50 (AsPC-1 cells): 663 nM

Cc1cc2[nH]ncc2c(-c2nccc3c2sc2nc(OC[C@@]45CCCN4C[C@H](F)C5)nc(N4CCOC[C@@](C)(O)C4)c23)c1C1=CCCC1 [Ex-140, (6S)-4-(8-(5-(cyclo-pent-1-en-1-yl)-6-methyl-1H-indazol-4-yl)-2-(((2R,7aS)-2-fluorotetrahydro-1H-pyrrolizin-7a(5H)-yl)methoxy)pyrido [4′,3′:4,5]thieno[2,3-d]pyrimidin-4-yl)-6-methyl-1,4-oxaze-pan-6-ol]
IC50 (KRAS-WT): 184 nM | IC50 [1]: 362 nM | IC50 (KRAS-G12D): 69.3 nM | IC50 (KRAS-G12V): 65.3 nM | IC50 (KRAS-G13D): 172 nM | IC50 (AsPC-1 cells): 560 nM

C[C@@]1(O)COCCN(c2nc(OC[C@@]34CCCN3C[C@H](F)C4)nc3sc4c(-c5c(-c6cccs6)c(Cl)cc6[nH]ncc56)nccc4c23)C1 [Ex-143, (6S)-4-(8-(6-chloro-5-(thiophen-2-yl)-1H-indazol-4-yl)-2-(((2R,7aS)-2-fluoro-tetrahydro-1H-pyr-rolizin-7a(5H)-yl)-methoxy)pyrido [4′,3′:4,5]thieno[2,3-d]pyrimidin-4-yl)-6-methyl-1,4-oxaze-pan-6-ol]
IC50 (KRAS-WT): 197 nM | IC50 [1]: 52.9 nM | IC50 (KRAS-G12D): 108 nM | IC50 (KRAS-G12V): 109 nM | IC50 (KRAS-G13D): 124 nM | IC50 (AsPC-1 cells): 330 nM

Cc1cc2[nH]ncc2c(-c2nccc3c2sc2nc(OC[C@@]45CCCN4C[C@H](F)C5)nc(N4CCOC[C@@](C)(O)C4)c23)c1-c1ccco1 [Ex-146, (6S)-4-(2-(((2R, 7aS)-2-fluorotetra-hydro-1H-pyrrol-izin-7a(5H)-yl)meth-oxy)-8-(5-(furan-2-yl)-6-methyl-1H-indazol-4-yl)pyrido [4′,3′:4,5]thieno[2,3-d]pyrimidin-4-yl)-6-methyl-1,4-oxaze-pan-6-ol]
IC50 (KRAS-WT): 58.2 nM | IC50 [1]: 77.6 nM | IC50 (KRAS-G12D): 15.3 nM | IC50 (KRAS-G12V): 22.1 nM | IC50 (KRAS-G13D): 29.4 nM | IC50 (AsPC-1 cells): 153 nM

Cc1cc2[nH]ncc2c(-c2nccc3c2sc2nc(OC[C@@]45CCCN4C[C@H](F)C5)nc(N4CCOC[C@@](C)(O)C4)c23)c1C1CCCC1 [Ex-147, (6S)-4-(8-(5-cyclo-pentyl-6-methyl-1H-indazol-4-yl)-2-(((2R,7aS)-2-fluoro-tetrahydro-1H-pyr-rolizin-7a(5H)-yl)-methoxy)pyrido [4′,3′:4,5]thieno[2,3-d]pyrimidin-4-yl)-6-methyl-1,4-oxaze-pan-6-ol]
IC50 (KRAS-WT): 670 nM | IC50 [1]: 438 nM | IC50 (KRAS-G12D): 284 nM | IC50 (KRAS-G12V): 293 nM | IC50 (KRAS-G13D): 936 nM | IC50 (AsPC-1 cells): 1260 nM

C[C@@]1(O)COCCN(c2nc(OC[C@@]34CCCN3C[C@H](F)C4)nc3sc4c(-c5c(-c6ccco6)c(Cl)cc6[nH]ncc56)nccc4c23)C1 [Ex-148, (6S)-4-(8-(6-chloro-5-(furan-2-yl)-1H-indazol-4-yl)-2-(((2R,7aS)-2-fluoro-tetrahydro-1H-pyr-rolizin-7a(5H)-yl)-methoxy)pyrido [4′,3′:4,5]thieno[2,3-d]pyrimidin-4-yl)-6-methyl-1,4-oxaze-pan-6-ol]
IC50 (KRAS-WT): 27.6 nM | IC50 [1]: 112 nM | IC50 (KRAS-G12D): 6.61 nM | IC50 (KRAS-G12V): 9.35 nM | IC50 (KRAS-G13D): 20.4 nM | IC50 (AsPC-1 cells): 91.4 nM

C#Cc1cccc2[nH]nc(-c3nccc4c3sc3nc(OC[C@@]56CCCN5C[C@H](F)C6)nc(N5CCOC[C@@](C)(O)C5)c34)c12 [Ex-159, (S)-4-(8-(4-ethynyl-1H-indazol-3-yl)-2-(((2R,7aS)-2-fluorotetrahydro-1H-pyrrolizin-7a(5H)-yl)methoxy)pyrido[4′,3′:4,5]thieno[2,3-d]pyrimidin-4-yl)-6-methyl-1,4-oxazepan-6-ol]
IC50 (KRAS-WT): 658 nM | IC50 [1]: 48.3 nM | IC50 (KRAS-G12D): 260 nM | IC50 (KRAS-G12V): 118 nM | IC50 (KRAS-G13D): 328 nM | IC50 (AsPC-1 cells): 1170 nM

Cc1cc2[nH]ncc2c(-c2nccc3c2sc2nc(OC[C@@]45CCCN4C[C@H](F)C5)nc(NC4(CO)COC4)c23)c1C(F)(F)F [Ex-185, (3-((2-(((2R,7aS)-2-fluoro-tetrahydro-1H-pyrrolizin-7a(5H)-yl)methoxy)-8-(6-methyl-5-(trifluoromethyl)-1H-indazol-4-yl)pyrido [4′,3′:4,5]thieno[2,3-d]pyr-imidin-4-yl)amino)oxetan-3-yl)methanol]
IC50 (KRAS-WT): 1370 nM | IC50 [1]: 146 nM | IC50 (KRAS-G12D): 482 nM | IC50 (KRAS-G12V): 319 nM | IC50 (KRAS-G13D): 842 nM | IC50 (AsPC-1 cells): 4580 nM

Cc1cc2[nH]ncc2c(-c2nccc3c2sc2nc(OC[C@@]45CCCN4C[C@H](F)C5)nc(NC45CC(O)(C4)C5)c23)c1C(F)(F)F [Ex-187, 3-((2-(((2R,7aS)-2-fluoro-tetrahydro-1H-pyrrolizin-7a(5H)-yl)methoxy)-8-(6-methyl-5-(trifluorometh-yl)-1H-indazol-4-yl)pyrido [4′,3′:4,5]thieno[2,3-d]pyrimidin-4-yl)amino)-bicyclo[1.1.1]pentan-1-ol]
IC50 (KRAS-WT): 499 nM | IC50 [1]: 72.6 nM | IC50 (KRAS-G12D): 390 nM | IC50 (KRAS-G12V): 170 nM | IC50 (KRAS-G13D): 223 nM | IC50 (AsPC-1 cells): 3570 nM

Cc1cc2[nH]ncc2c(-c2nccc3c2sc2nc(OC[C@@]45CCCN4C[C@H](F)C5)nc(NC4CCOC4)c23)c1C(F)(F)F (stereo partly drawn) [Ex-188, 2-(((2R,7aS)-2-fluoro-tetrahydro-1H-pyrrolizin-7a(5H)-yl)methoxy)-8-(6-methyl-5-(trifluoromethyl)-1H-indazol-4-yl)-N-(tetra-hydrofuran-3-yl)pyrido [4′,3′:4,5]thieno[2,3-d] pyrimidin-4-amine]
IC50 (KRAS-WT): 1860 nM | IC50 [1]: 562 nM | IC50 (KRAS-G12D): 4950 nM | IC50 (KRAS-G12V): 753 nM | IC50 (KRAS-G13D): 1250 nM | IC50 (AsPC-1 cells): 3660 nM
